Laboratory results reported in ChEMBL document CHEMBL4814052, “Isatin-derived azoles as new potential antimicrobial agents: Design, synthesis and biological evaluation” (2021).
In brackets after ≈: the same amount, converted by molar mass. Activity calls are given as the source filed them. No cut-off for these calls is given here.

Legend:
Assay type in all cases: functional
[1] = test system: Klebsiella pneumoniae; assay: Antibacterial activity against Klebsiella pneumonia by broth microdilution method
[2] = test system: Escherichia coli; assay: Antibacterial activity against Escherichia coli by broth microdilution method
[3] = test system: Acinetobacter baumannii; assay: Antibacterial activity against Acinetobacter baumannii by broth microdilution method
[4] = test system: Staphylococcus aureus; assay: Antibacterial activity against methicillin resistant Staphylococcus aureus by broth microdilution method
[5] = test system: Pseudomonas aeruginosa; assay: Antibacterial activity against Pseudomonas aeruginosa ATCC 27853 by broth microdilution method
[6] = test system: Pseudomonas aeruginosa; assay: Antibacterial activity against Pseudomonas aeruginosa by broth microdilution method
[7] = test system: Staphylococcus aureus; assay: Antibacterial activity against Staphylococcus aureus ATCC 25923 by broth microdilution method
[8] = test system: Enterococcus faecalis; assay: Antibacterial activity against Enterococcus faecalis by broth microdilution method
[9] = test system: Staphylococcus aureus; assay: Antibacterial activity against Staphylococcus aureus ATCC 29213 by broth microdilution method
[10] = test system: Escherichia coli; assay: Antibacterial activity against Escherichia coli ATCC 25922 by broth microdilution method
[11] = test system: Staphylococcus aureus; assay: Antibacterial activity against Staphylococcus aureus by broth microdilution method
[12] = test system: Candida tropicalis; assay: Antifungal activity against Candida tropicalis

| Structure (SMILES) | MIC [1] [µg/mL] | MIC [2] [µg/mL] | MIC [3] [µg/mL] | MIC [4] [µg/mL] | MIC [5] [µg/mL] | MIC [6] [µg/mL] | MIC [7] [µg/mL] | MIC [8] [µg/mL] | MIC [9] [µg/mL] | MIC [10] [µg/mL] | MIC [11] [µg/mL] | Activity [12] |
| --- | --- | --- | --- | --- | --- | --- | --- | --- | --- | --- | --- | --- |
| O=C(CC1(O)C(=O)N(CCn2cncn2)c2ccccc21)c1ccccc1 (stereo unspecified) | 256 (≈ 706 µM) | 256 (≈ 706 µM) | 64 (≈ 177 µM) | 128 (≈ 353 µM) | 512 (≈ 1410 µM) | 512 (≈ 1410 µM) | 256 (≈ 706 µM) | 256 (≈ 706 µM) | 256 (≈ 706 µM) | 512 (≈ 1410 µM) | 128 (≈ 353 µM) |  |
| CCCc1nccn1CCN1C(=O)C(=O)c2ccccc21 | 128 (≈ 452 µM) | 64 (≈ 226 µM) | 32 (≈ 113 µM) | 128 (≈ 452 µM) | 256 (≈ 904 µM) | 128 (≈ 452 µM) | 256 (≈ 904 µM) | 128 (≈ 452 µM) | 16 (≈ 56.5 µM) | 64 (≈ 226 µM) | 64 (≈ 226 µM) |  |
| O=C(/C=C1\C(=O)N(CCn2cncn2)c2ccccc21)c1ccc(Cl)cc1 | 128 (≈ 338 µM) | 512 (≈ 1350 µM) | > 512 | 32 (≈ 84.5 µM) | 512 (≈ 1350 µM) | 512 (≈ 1350 µM) | 128 (≈ 338 µM) | 32 (≈ 84.5 µM) | 64 (≈ 169 µM) | 64 (≈ 169 µM) | 512 (≈ 1350 µM) |  |
| Cc1ncc([N+](=O)[O-])n1CCN1C(=O)C(=O)c2ccccc21 | 64 (≈ 213 µM) | 128 (≈ 426 µM) | 128 (≈ 426 µM) | 128 (≈ 426 µM) | 256 (≈ 853 µM) | 64 (≈ 213 µM) | 256 (≈ 853 µM) | 128 (≈ 426 µM) | 128 (≈ 426 µM) | 128 (≈ 426 µM) | 128 (≈ 426 µM) |  |
| O=C1C(O)c2ccccc2N1CCn1cncn1 (stereo unspecified) | 128 (≈ 524 µM) | 128 (≈ 524 µM) | 64 (≈ 262 µM) | 128 (≈ 524 µM) | 128 (≈ 524 µM) | 256 (≈ 1050 µM) | 64 (≈ 262 µM) | 128 (≈ 524 µM) | 64 (≈ 262 µM) | 256 (≈ 1050 µM) | 128 (≈ 524 µM) |  |
| Cc1cc2ncn(CCN3C(=O)C(=O)c4ccccc43)c2cc1C | 128 (≈ 401 µM) | 256 (≈ 802 µM) | 32 (≈ 100 µM) | 128 (≈ 401 µM) | 256 (≈ 802 µM) | 256 (≈ 802 µM) | 256 (≈ 802 µM) | 256 (≈ 802 µM) | 128 (≈ 401 µM) | 256 (≈ 802 µM) | 256 (≈ 802 µM) |  |
| O=C(CC1(O)C(=O)N(CCn2cncn2)c2ccccc21)c1ccc(O)cc1 (stereo unspecified) | 256 (≈ 677 µM) | 256 (≈ 677 µM) | 512 (≈ 1350 µM) | 256 (≈ 677 µM) | 256 (≈ 677 µM) | 256 (≈ 677 µM) | 256 (≈ 677 µM) | 256 (≈ 677 µM) | 256 (≈ 677 µM) | 256 (≈ 677 µM) | 256 (≈ 677 µM) |  |
| O=C1C(=O)N(CCn2cnc3ccccc32)c2ccccc21 | 128 (≈ 439 µM) | 256 (≈ 879 µM) | 128 (≈ 439 µM) | 256 (≈ 879 µM) | 256 (≈ 879 µM) | 512 (≈ 1760 µM) | 256 (≈ 879 µM) | 256 (≈ 879 µM) | 256 (≈ 879 µM) | 256 (≈ 879 µM) | 64 (≈ 220 µM) |  |
| O=C1C(=O)N(CCn2cnc([N+](=O)[O-])c2)c2ccccc21 | 64 (≈ 224 µM) | 128 (≈ 447 µM) | 32 (≈ 112 µM) | 256 (≈ 894 µM) | 256 (≈ 894 µM) | 64 (≈ 224 µM) | 64 (≈ 224 µM) | 128 (≈ 447 µM) | 32 (≈ 112 µM) | 64 (≈ 224 µM) | 128 (≈ 447 µM) |  |
| OC(Cn1cncn1)(Cn1cncn1)c1ccc(F)cc1F |  |  |  |  |  |  |  |  |  |  |  | Active |
| Cc1ccc(C(=O)/C=C2\C(=O)N(CCn3cncn3)c3ccccc32)cc1 | 256 (≈ 714 µM) | 64 (≈ 179 µM) | 32 (≈ 89.3 µM) | 128 (≈ 357 µM) | 512 (≈ 1430 µM) | 128 (≈ 357 µM) | 8 (≈ 22.3 µM) | 256 (≈ 714 µM) | 256 (≈ 714 µM) | 256 (≈ 714 µM) | 64 (≈ 179 µM) |  |
